These results are taken from US20240190855A1 (Relay Therapeutics, Inc., priority 2021, published 2024).

The target of the assay is T1, CDK2/Cyclin E complex (Homo sapiens, UniProt P24941).
T1 construct: purchased Eurofins 14-475
The experiment in a line: CDK2/Cyclin E fluorescence-based microfluidic mobility shift assay (CDK2 Biochemical Caliper Assay). Conditions: read-out: Biochemical CDK2/CyclinE Caliper IC50. An outline of the steps: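 Microfluidic mobility-shift readout after EDTA termination measured phosphorylation of fluorescent FL Peptide 18 (1.5 uM final) in a 20 hr room-temperature reaction. Compounds were tested at 11 concentrations (3-fold).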

With `COc1cccc2ccc(Nc3cc(C4CCCC4)[nH]n3)nc12` [Example 868], the IC50 lay in the range of 1 to 100 µM. Then `c1cn2nc3c(c2c(Nc2cc(C4CCCC4)[nH]n2)n1)CCC3` [Example 869], with 1 to 100 µM; and `c1cn2nc(C3CC3)cc2c(Nc2cc(C3CCCC3)[nH]n2)n1` [Example 870], with 1 to 100 µM.

For `c1ccc(-c2ncnc(Nc3cc(C4CCCC4)[nH]n3)n2)cc1` [Example 871], the IC50 lay within 1 to 100 µM. With `Cc1nc(Nc2cc(C3CCCC3)[nH]n2)c(C#N)c2c1CCC2` [Example 872], the IC50 was 1 to 100 µM. Then `O=c1cc(Nc2cc(C3CCCC3)[nH]n2)c2ncccc2[nH]1` [Example 873], with 1 to 100 µM; and `Cc1cc(C(=O)O)c(Nc2cc(C3CCCC3)[nH]n2)nc1C` [Example 874], with 1 to 100 µM.

In the case of `CCc1c(C)nc2ncnn2c1Nc1cc(C2CCCC2)[nH]n1` [Example 875], the IC50 was 1 to 100 µM. Then `Oc1cc(Nc2cc(C3CCCC3)[nH]n2)ncn1` [Example 876], with 1 to 100 µM; and `c1cc2nc(Nc3cc(C4CCCC4)[nH]n3)ccn2n1` [Example 877], with 0.25 to 1 µM; and `COc1ccc2cnnc(Nc3cc(C4CCCC4)[nH]n3)c2c1` [Example 878], with 1 to 100 µM. Then `Cn1nc(COC(F)(F)F)cc1C(=O)Nc1cc([C@H]2C[C@@H](OC(=O)NC(C)(C)C#N)CO2)[nH]n1` [Example 879], with at most 0.1 µM. Then `COCc1cc(C(=O)Nc2cc([C@H]3C[C@@H](OC(=O)NC4(C)CC4)CO3)[nH]n2)n(C)n1` [Example 880], with at most 0.1 µM.

For the compound `Cn1nc(OCC(F)(F)F)cc1C(=O)Nc1cc([C@H]2C[C@@H](OC(=O)NC34CC(C3)C4)CO2)[nH]n1` [Example 881], the IC50 was at most 0.1 µM. Then `Cn1nc(OC(F)(F)Cl)cc1C(=O)Nc1cc([C@H]2C[C@@H](OC(=O)NC3(C)CC3)CO2)[nH]n1` [Example 882], with at most 0.1 µM; and `Cn1nc(C=O)cc1C(=O)Nc1cc([C@H]2C[C@@H](OC(=O)NC3(C)CC3)CO2)[nH]n1` [Example 883], with at most 0.1 µM; and `Cn1nc(COC(F)(F)F)cc1C(=O)Nc1cc([C@H]2C[C@@H](OC(=O)NC34C5C6C7C5C3C7C64)CO2)[nH]n1` (stereo partly shown) [Example 884], with at most 0.1 µM. On to `COCC1(NC(=O)O[C@H]2CO[C@@H](c3cc(NC(=O)c4cc(COC(F)(F)F)nn4C)n[nH]3)C2)CC1` [Example 885], for which the IC50 was at most 0.1 µM. For the compound `CC1(NC(=O)O[C@H]2CO[C@@H](c3cc(NC(=O)c4cnn(CCOC(F)(F)F)c4)n[nH]3)C2)CC1` [Example 886], the IC50 was at most 0.1 µM. As for `Cn1nc(OCC(F)F)cc1C(=O)Nc1cc([C@H]2C[C@@H](OC(=O)NC34CC(C3)C4)CO2)n[nH]1` [Example 887], the IC50 is at most 0.1 µM. Then `Cn1nc(COC(F)(F)F)cc1C(=O)Nc1cc([C@H]2C[C@@H](OC(=O)NC3(C)COC3)CO2)[nH]n1` [Example 888], with at most 0.1 µM; and `Cn1nc(COC(F)(F)F)cc1C(=O)Nc1cc([C@@H]2C[C@H](OC(=O)NC3(C)COC3)CO2)[nH]n1` [Example 893], with at most 0.1 µM. Then `COCC1(NC(=O)O[C@@H]2CO[C@H](c3cc(NC(=O)c4cc(COC(F)(F)F)nn4C)n[nH]3)C2)CC1` [Example 894], with at most 0.1 µM.

Regarding `COCc1cc(C(=O)Nc2cc([C@H]3C[C@@H](OC(=O)NC4(C)CC4)CO3)[nH]n2)n(C(F)(F)F)n1` [Example 895], the IC50 is at most 0.1 µM. Then `COCc1cc(C(=O)Nc2cc([C@H]3C[C@@H](Oc4[nH]ncc4C(C)C)CO3)[nH]n2)n(C)n1` [Example 896], with at most 0.1 µM; and `CC1(NC(=O)O[C@H]2CO[C@@H](c3cc(Nc4nccn5nc(COC(F)(F)F)cc45)n[nH]3)C2)CC1` [Example 897], with at most 0.1 µM. Then `CC1(NC(=O)O[C@H]2CO[C@H](c3cc(Nc4nccc5nc(C(F)(F)F)cn45)n[nH]3)C2)CC1` [Example 898], with 0.25 to 1 µM; and `CC1(NC(=O)O[C@H]2CO[C@@H](c3cc(Nc4nccc5nc(C(F)(F)F)cn45)n[nH]3)C2)CC1` [Example 901], with at most 0.1 µM.
